The source of these data is patent US20040043425A1, “Proteins, genes and their use for diagnosis and treatment of chronic asthma” (priority 2000, published 2004).

The subject of test [1] is CAF-15. Nature of the test: 2D electrophoresis fold change of CAF-15 in primary cultures of human airway myofibroblasts. Type of test: cell-based. As to conditions: thrombin 20 units/ml. The protocol:
(§1) dexamethasone at 1 μM (glucocorticoid).

Test [2] relates to CAF-1. As to conditions: thrombin 20 units/ml. The protocol:
Using the following procedure, proteins in primary cultures of human airway myofibroblasts were separated by isoelectric focusing followed by SDS-PAGE and analyzed. Different cultures were used, infra, and two different time points at 1 hour (referred to as “early”) and 6 hours (referred to as “late”) were taken. Parts 6.1.1 to 6.1.14 (inclusive) of the procedure set forth below are hereby designated as the “Reference Protocol”.
Primary cultures of human airway myofibroblasts (Hall IP, Kotlikoff M, Am J Physiol January 1995; 268(1 Pt 1): L1-11, Use of cultured airway myocytes for study of airway smooth muscle; Hirst S J, Eur Respir J April 1996; 9(4): 808-20, Airway smooth muscle cell culture: application to studies of airway wall remodeling and phenotype plasticity in asthma.) were treated by one, or a successive combination of, the following:
thrombin at 20 units/ml (Panettieri R A Jr, Hall I P, Maki C S, Murray R K, Am J Respir Cell Mol Biol August 1995; 13(2):205-16, Alpha-Thrombin increases cytosolic calcium and induces human airway smooth muscle cell proliferation).
as §1
theophylline 100 μM (Billington C K, Joseph S K, Swan C, Scott M G, Jobson T M, Hall I P, Am J Physiol March 1999; 276(3 Pt 1):L412-9, Modulation of human airway smooth muscle proliferation by type 3 phosphodiesterase inhibition).
Using the protein expression database, matching protein features present in test primary cultures and in control primary cultures were compared.

For test [3], the system named is CAF-20. The test can be described thus: 2D electrophoresis fold change of CAF-20 in primary cultures of human airway myofibroblasts. Particulars: thrombin 20 units/ml, early. In kind it is cell-based. The protocol: as §1
Test [4] deals with CAF-22. The test can be described thus: 2D electrophoresis fold change of CAF-22 in primary cultures of human airway myofibroblasts. In kind it is cell-based. Particulars: thrombin 20 units/ml, early. The protocol:
as §1

The test system of test [5] is CAF-13. Nature of the test: 2D electrophoresis fold change of CAF-13 in primary cultures of human airway myofibroblasts. As to conditions: thrombin 20 units/ml. Type of test: cell-based. The protocol:
as §1

Test [6] deals with CAF-3. The test can be described thus: 2D electrophoresis fold change of CAF-3 in primary cultures of human airway myofibroblasts. In kind it is cell-based. Particulars: thrombin 20 units/ml. The protocol: as §1
The test system of test [7] is CAF-24. Nature of the test: 2D electrophoresis fold change of CAF-24 in primary cultures of human airway myofibroblasts. In kind it is cell-based. Particulars: thrombin 20 units/ml, early. The protocol:
as §1

Test [8] relates to CAF-25. The test can be described thus: 2D electrophoresis fold change of CAF-25 in primary cultures of human airway myofibroblasts. Type of test: cell-based. Particulars: thrombin 20 units/ml. The protocol:
as §1

Test [9] concerns CAF-12. The test can be described thus: 2D electrophoresis fold change of CAF-12 in primary cultures of human airway myofibroblasts. As to conditions: thrombin 20 units/ml, early. Type of test: cell-based. The protocol: as §1
Test [10] has as its system CAF-29. Nature of the test: 2D electrophoresis fold change of CAF-29 in primary cultures of human airway myofibroblasts. Type of test: cell-based. Particulars: thrombin 20 units/ml. The protocol:
as §1

In test [11] the test system is CAF-18. Nature of the test: 2D electrophoresis fold change of CAF-18 in primary cultures of human airway myofibroblasts. In kind it is cell-based. Particulars: thrombin 20 units/ml. The protocol: as §1
In test [12] the test system is CAF-19. Nature of the test: 2D electrophoresis fold change of CAF-19 in primary cultures of human airway myofibroblasts. As to conditions: thrombin 20 units/ml, late. In kind it is cell-based. The protocol:
as §1

For test [13], the system named is CAF-33. The test can be described thus: 2D electrophoresis fold change of CAF-33 in primary cultures of human airway myofibroblasts. Type of test: cell-based. Particulars: thrombin 20 units/ml, late. The protocol: as §1
The test system of test [14] is CAF-21. The test can be described thus: 2D electrophoresis fold change of CAF-21 in primary cultures of human airway myofibroblasts. Type of test: cell-based. Particulars: thrombin 20 units/ml. The protocol:
as §1

The subject of test [15] is CAF-2. The test can be described thus: 2D electrophoresis fold change of CAF-2 in primary cultures of human airway myofibroblasts. In kind it is cell-based. As to conditions: thrombin 20 units/ml. The protocol:
as §1

Test [16] concerns CAF-5. Nature of the test: 2D electrophoresis fold change of CAF-5 in primary cultures of human airway myofibroblasts. Type of test: cell-based. As to conditions: thrombin 20 units/ml. The protocol:
as §1

The test system of test [17] is CAF-34. Nature of the test: 2D electrophoresis fold change of CAF-34 in primary cultures of human airway myofibroblasts. Particulars: thrombin 20 units/ml. Type of test: cell-based. The protocol:
as §1

In test [18] the test system is CAF-35. Nature of the test: 2D electrophoresis fold change of CAF-35 in primary cultures of human airway myofibroblasts. Type of test: cell-based. As to conditions: thrombin 20 units/ml, late. The protocol:
as §1

For `C[C@@H]1C[C@H]2[C@@H]3CCC4=CC(=O)C=C[C@]4(C)[C@@]3(F)[C@@H](O)C[C@]2(C)[C@@]1(O)C(=O)CO` [Dexamethasone, dexamethasone], the “Fold change following 1 h thrombin and 1 h Dexamethasone relative to cells treated with thrombin alone” value in [1] (dexamethasone 1 μM, early) is reported as 4.619; in test [2] (dexamethasone 1 μM, early) it was 4.713; in test [3] (dexamethasone 1 μM), 20.554; in test [4] (dexamethasone 1 μM), −2.909; in [5] (dexamethasone 1 μM, early), 5.677; in [6] (dexamethasone 1 μM, early), 2.438. Moreover, the “Fold change following 1 h thrombin and 1 h Dexamethasone relative to cells treated with thrombin alone” value is reported as 75.754 in test [7] (dexamethasone 1 μM); 5.245 in test [8] (dexamethasone 1 μM, early); 21.529 in test [9] (dexamethasone 1 μM); 8.553 in test [11] (dexamethasone 1 μM, early). Further, the “Fold change following 6 h thrombin and 7 h Dexamethasone relative to cells treated with thrombin alone” value in test [1] (dexamethasone 1 μM, late) was −2.423; in test [10] (dexamethasone 1 μM, late), −2.142; in [11] (dexamethasone 1 μM, late), −15.966.
As for thrombin, the “Fold change following 1 h thrombin, relative to untreated cells” value in [1] (early) is −14.045; in test [2] (early), −4.393; in test [3] it was −16.512; in test [4], 1.733; in test [14] (early), −4.110; in [15] (early) it was 7.832. The “Fold change following 1 h thrombin, relative to untreated cells” value in [5] (early) is −2.425; in test [16] (early) it was −3.486; in test [17] (early), 2.741; in [6] (early), −2.976; in test [7], −332.863; in test [8] (early) it was −8.122. Besides, the “Fold change following 1 h thrombin, relative to untreated cells” value was −51.041 in [9], 2.597 in test [10] (early) and −19.780 in test [11] (early). The “Fold change following 6 h thrombin, relative to untreated cells” value in test [1] (late) is recorded as 3.037; in [12] it was −2.815; in test [2] (late), 2.463; in test [13] it was −4.459; in test [14] (late), 4.186; in [15] (late), 14.593. In addition, the “Fold change following 6 h thrombin, relative to untreated cells” value in test [5] (late) is reported as 3.292; in [16] (late), −2.846; in test [17] (late), 5.005; in [6] (late) it was 2.120; in [8] (late) it was −4.750; in test [10] (late), 2.169. Besides, the “Fold change following 6 h thrombin, relative to untreated cells” value in test [18] is listed as −3.705; in test [11] (late) it was 16.517.
On to `Cn1c(=O)c2[nH]cnc2n(C)c1=O` [theophylline], for which the “Fold change following 1 h thrombin and 1 h theophylline relative to cells treated with thrombin alone” value is on record as 16.824 in [1] (theophylline 100 μM, early); 3.518 in test [2] (theophylline 100 μM, early); 29.086 in [3] (theophylline 100 μM); −2.096 in test [4] (theophylline 100 μM); 4.912 in test [15] (theophylline 100 μM, early); 4.288 in test [5] (theophylline 100 μM, early). In addition, the “Fold change following 1 h thrombin and 1 h theophylline relative to cells treated with thrombin alone” value stood at 2.306 in test [16] (theophylline 100 μM, early); 19.892 in [7] (theophylline 100 μM); 10.216 in test [8] (theophylline 100 μM, early); 39.410 in test [9] (theophylline 100 μM); 26.692 in [11] (theophylline 100 μM, early). The “Fold change following 6 h thrombin and 7 h theophylline relative to cells treated with thrombin alone” value was −2.077 in test [1] (theophylline 100 μM, late); −2.122 in [2] (theophylline 100 μM, late); 2.839 in test [11] (theophylline 100 μM, late). Moreover, the “Fold change following 6 h thrombin and 6 h theophylline relative to cells treated with thrombin alone” value in test [12] (theophylline 100 μM) came to 2.800; in test [13] (theophylline 100 μM), 2.031; in test [8] (theophylline 100 μM, late), 19.320; in test [18] (theophylline 100 μM) it was 2.182.
